# Measured values as given in patent US8318954B2, “Cleavable carnitine compound” (Nou Life Sciences, Inc., priority 2006, dated 2012).
# Like-named read-outs stand apart in the source and are kept apart here.
# Legend:
# [1] = tested on: patients with chronic critical limb ischaemia; conditions: 1.2 g/day i.v. infusion for two weeks with calcium heparin 25,000 U/day s.c.; over baseline; cited from earlier work
# [2] = tested on: male patients with intermediate claudication; conditions: cited from earlier work; for TcPCO: after treatment
# [3] = tested on: rats; conditions: 10 mg/kg cisplatin s.c. seven days, oral 300 mg/kg acetyl L-carnitine, 300 mg/kg carnitine mixture, 50 mg/kg α-lipoic acid; cited from earlier work
# [4] = tested on: C. elegans; assay: Visual scoring of C. elegans after overnight incubation with compound in 24 well plate; assay type: in vivo; conditions: DHLA1, 1:500 final concentration in well; 19 h incubation; L3/L4-stage N2 animals
# Description: (§1) One 24 well microtiter plate was set up and incubated overnight on the shaker at 20 C. Each well on the plate was set up with 600 L3/L4-stage N2 animals in NGM with a 1:20 dilution of concentrated HB101 E. coli (food source) in a volume of 300 μl. Before the animal/HB101 solution was added, test compounds were pipetted into wells. For water controls and compound stocks/dilutions in water (DHLA, NAC) 6 μl was added to each well (1:50 dilutions). For DMSO controls and compound stocks/dilutions in DMSO (LA) 3 μl was added to each well (1:100 dilutions). No OD620 measurements were taken but the animals were visually scored after 19 h incubation.
# One 24 well microtiter plate was set up and incubated overnight on the shaker at 20° C. Each well on the plate was set up with 600 L3/L4-stage N2 animals in NGM with a 1:20 dilution of concentrated HB101 E. coli (food source) in a volume of 300 μl. Before the animal/HB101 solution was added, test compounds were pipetted into wells. For DMSO controls and compound stocks/dilutions in DMSO (LC) 3 μl was added to each well (1:100 dilutions). No OD620 measurements were taken but the animals were visually scored after 19 h incubation).
# One 24 well microtiter plate was set up and incubated overnight on the shaker at 20° C. Each well on the plate was set up with 600 L3/L4-stage N2 animals in NGM with a 1:20 dilution of concentrated HB101 E. coli (food source) in a volume of 300 μl. Before the animal/HB101 solution was added, test compounds were pipetted into wells. For DMSO controls and compound stocks/dilutions in DMSO (LC) 3 μl was added to each well (1:100 dilutions). No OD620 measurements were taken but the animals were visually scored after 22 h incubation).
# [5] = tested on: C. elegans; assay: Thermal avoidance (TAV) 3 step dose response testing; assay type: in vivo; conditions: for effects indicating increased sensory sensitivity: 0%, 6%, 12% laser intensity
# From the text: The present invention includes a series of compounds that may be useful for increasing sensory neuron function in certain human neuropathological conditions. C. elegans contains a number of sensory neurons which are responsible for detecting a variety of external stimuli. One such stimulus (heat) can be detected and quantified in C. elegans by the use of thermal avoidance (TAV) technology available through NemaRx. The goal of this experiment was to provide an initial characterization of the compounds via TAV. Specifically, it was asked whether any of these compounds can lead to an increase in the thermal stimulus-induced behavioral response measured by TAV. N2 strain C. elegans animals were used for this project, which have ‘normal’, i.e. wildtype, sensory neuron function. Four compounds were received by NemaRx for TAV testing. These compounds were:
# as §1
# Dose Responses—setup: All of the wells from the 24 well plate were used for dose response testing and the entire well contents (600 animals) were used for each test. Prior to being placed on the agar plate for TAV testing each sample was processed as follows: • sample were transferred to glass tube containing 7 ml PBS • animals were allowed to settle for 5 minutes before most of the supernatant was removed (approx. 0.5 ml remaining in tube) • 7 ml PBS was then added, mixed and animals were allowed to settle for 5 minutes most of the supernatant was then removed • animals were removed and transferred to TAV testing plate (NRx Application pattern A) • plate was allowed to dry for 10 minutes (plate cover removed) and TAV testing was initiated. Per plate settings for the dose response experiments were as follows:
# Dose Responses—general notes on analysis: A response of the animals to a thermal stimulus (laser) which is applied to the head region can be detected both by a change in the direction of movement, as well as by a change in speed occurring within the test interval where the stimulus is applied. • direction of movement. […] Animals that show a strong change in the direction of movement, i.e. reversals, are classified as LR5 responders. […] LR5 responders show a thermal intensity-dependent increase in the speed of movement (starting off with less than <prelaser speed at low intensities up to > pre-laser speed at high intensities)
# The dose response experiments for the current project were carried out with 0% (background control), 6% and 12% settings of laser intensity. In practice, 6% is on the edge of laser intensity required to detect an increase in the number of LR5 responders. As such, 6% should be a useful intensity-setting to detect compound-induced increased sensitivity in the animals. The 12% setting was chosen because this intensity typically gives a robust increase in the number of LR5 responders.
# Total Responder speeds, ‘LR1 Responder speeds’ and ‘LR5 Responder speeds’ are shown as normalized speeds to allow better comparison between samples. For normalization purposes the average pre-laser speed is set at 1.0 and responder speeds are calculated relative to this value.
# One 24 well microtiter plate was set up and incubated overnight on the shaker at 20° C. Each well on the plate was set up with 600 L3/L4-stage N2 animals in NGM with a 1:20 dilution of concentrated HB101 E. coli (food source) in a volume of 300 μl. […]
# [6] = tested on: C. elegans; assay: Thermal avoidance (TAV) single intensity testing (6% laser intensity); assay type: in vivo
# Description: One 24 well microtiter plate was set up and incubated overnight on the shaker at 20° C. Each well on the plate was set up with 600 L3/L4-stage N2 animals in NGM with a 1:20 dilution of concentrated HB101 E. coli (food source) in a volume of 300 μl. Before the animal/HB101 solution was added, test compounds were pipetted into wells. 3 μl each for the DMSO controls and LA dilutions were added to each well (1:100 dilutions). Controls and LA dilutions were done in triplicate (total of 9 wells).
# 6% Response tests—setup: All 9 wells from the 24 well plate were used for 6% testing and the entire well contents (600 animals) were used for each test. Prior to being placed on the agar plate for TAV testing each sample was processed as described for ‘Dose Responses’.
# Dose Responses—general notes on analysis: Analysis similar as described in ‘Dose Responses’. In addition, ‘Response ratios’ as well as ‘A Speed responses’ both give measures of how much individual animals changed speed in response to the stimulus (additional information available upon request).
# One 24 well microtiter plate was set up and incubated overnight on the shaker at 20° C. Each well on the plate was set up with 600 L3/L4-stage N2 animals in NGM with a 1:20 dilution of concentrated HB101 E. coli (food source) in a volume of 300 μl. Before the animal/HB101 solution was added, test compounds were pipetted into wells. 6 μl each for the water controls and compound dilutions were added to each well (1:50 dilutions). Controls and compound dilutions were done in triplicate (total of 15 wells).
# 6% Response tests—setup: All 15 wells from the 24 well plate were used for 6% testing) and the entire well contents (600 animals) were used for each test. Prior to being placed on the agar plate for TAV testing each sample was processed as described for ‘Dose Responses’.
# One 24 well microtiter plate was set up and incubated overnight on the shaker at 20° C. Each well on the plate was set up with 600 L3/L4-stage N2 animals in NGM with a 1:20 dilution of concentrated HB101 E. coli (food source) in a volume of 300 μl. Before the animal/HB101 solution was added, test compounds were pipetted into wells. 3 μl each for the DMSO controls and LC dilutions were added to each well (1:100 dilutions). Controls and LC dilutions were done in triplicate (total of 9 wells).
# [7] = tested on: C. elegans; assay: Toxicity testing in C. elegans, 96 well plate, bacterial clearance (OD620); assay type: in vivo; conditions: highest concentration tested, 8 mM, L1-stage N2 animals, OD620 up to 44 hours, HCl
# Description: The work plan included a i) characterization of the compounds for toxicity in C. elegans and then, using subtoxic concentrations, a ii) characterization of compound effects on neuronal sensitivity as detected by TAV technology. Toxicity characterization follows a well established standard operating protocol used in previous toxicity-type assays in C. elegans. The initial TAV characterization of compound-mediated effects on C. elegans used a number of compound concentrations and incubation times that were selected by NemaRx as being most likely to detect any TAV-related effects that the compounds may have. […] 0% provides a ‘background’ measure, 6% typically gives intermediate TAV responses (and as such should provide a good starting point to detect compound-mediated increased TAV responses), and 12% usually gives robust responses. No obvious effects were detected for either of the four compounds. While the experimental setup provides a good first pass, the limitation lies in the relatively small number of animals that are assayed at each intensity (30). Subtle effects compound-mediated up-regulation at 6% laser intensity may be missed. • Single Intensity Testing: The two highest non-toxic compound concentrations for each of the four compounds were tested at 6% laser intensity. The number of datapoints collected was between 50-80 LA and >100 for the three other compounds. […] The experiment was carried out in quadruplicate. […] Stock Dilution Setup
# Two 96 well microtiter plates set up which were incubated at 20 C (both 96 well plates were identical, i.e. the experiment was done in duplicate). Each well on the plates was set up with 100 L1-stage N2 animals in NGM with a 1:20 dilution of concentrated HB101 E. coli (food source) in a volume of 50 μl. Compounds (see below) were then added to the wells. For water controls and compound stocks/dilutions in water (DH LA, NAC) 1 μl was added to each well (1:50 dilutions). For DMSO controls and compound stocks/dilutions in DMSO (LA) 0.5 μl was added to each well (1:100 dilutions). […]
# [8] = tested on: mice and rats; conditions: individually or in combination at high doses, mice and rats; cited from earlier work
# [9] = tested on: rats; conditions: cited from earlier work
# [10] = after 600 mg i.v. infusion, compared to pre-treatment values
smiles,measurement,setting,value
CCC(=O)O[C@H](CC(=O)[O-])C[N+](C)(C)C [L-Propionyl Carnitine],decrease in mean pain score,[1],83%
same,decrease in mean ulcer size (diameter),[1],48%
same,increase in mean pain free walking distance (PWD),[1],78%
same,Perfusion units,[2]; [10],did not change significantly
same,TcPO,[2]; [10],did not change significantly
same,resting TcPCO,[2]; after 600 mg i.v. infusion,no significant effects
same,TcPCO,[2]; at hypoxia point,90.2 mm Hg
same,Mean laser-Doppler power spectrum,"[2]; at rest, after 600 mg i.v. infusion",0.89 units
same,Mean laser-Doppler power spectrum,"[2]; during reperfusion, after 600 mg i.v. infusion",2.24 units
same,TcPCO,[2]; during reperfusion,103.5 mm Hg
N.N.[Cl][Pt][Cl] [Cisplatin],Equilibrium time,[3],8.4 ± 0.8 s
"O=C(O)CCCC[C@@H](S)CCS (racemic) [DHLA, Dihydrolipoic acid]",visual scoring of well clearance,[4],some bacteria remaining
same,effects indicating increased sensory sensitivity,[5]; even at highest concentration of 1:500,No obvious effects detected
same,percentage of LR5 responders at 6%,[5]; second highest concentration (DHLA2),relatively high
same,effect such as increased percentage of LR5 responders,"[6]; 1:1,000 or 1:2,500",No obvious effect detected
same,"response of animals that show a LR5 response ('Responder ratios', 'A Speed responses')","[6]; 1:2,500 concentration",slightly stronger response
"CC(=O)O[C@H](CC(=O)O)C[N+](C)(C)C.[Cl-] [NAC, N-Acetyl carnitine HCl]",effects indicating increased sensory sensitivity,[5]; even at highest concentration of 8 mM,No obvious effects detected
same,effects indicating increased sensory sensitivity,[6]; 8 mM or 4 mM,No effects detected
same,toxicity,[7],No toxic effects
same,toxicity,[7]; listed as N-Acetyl carnitine,no toxicity observed
C[N+](C)(C)CC(O)CC(=O)[O-] (centres unmarked) [Carnitine],tolerability and toxicity,[8],good tolerability and limited toxicity
same,area of skin flap necrosis,"[9]; group 1, 50 mg/kg/day for 1 week",12.55 cm^2
same,area of skin flap necrosis,"[9]; group 2, 100 mg/kg/day for 1 week",9.23 cm^2
